According to the NIST ThermoML archive (doi:10.1007/s10765-010-0737-5):

Assays:
[1] = xn = mol fraction of the nth substance listed; conditions: Liquid, x2 = 0; for viscosity: 101 kPa, Capillary tube (Ostwald / Ubbelohde) method; for mass density: 101.3 kPa
[2] = Liquid; for viscosity: 101 kPa, Capillary tube (Ostwald / Ubbelohde) method; for mass density: 101.3 kPa

CC(C)OC(C)C [diisopropyl ether] + CC(C)(C)Cl
[1]
Conditions	mass density [kg/m3]	viscosity [mPa·s]
283.15 K	733.833	0.3646
288.15 K	728.692	0.3486
293.15 K	723.509	0.334
298.15 K	718.289	0.3178
303.15 K	713.032	0.3001
308.15 K	707.727	0.2857
313.15 K	702.378	0.2723

CC(C)CCl [1-chloro-2-methylpropane]
[2]
Conditions	mass density [kg/m3]	viscosity [mPa·s]
283.15 K	888.845	0.5155
288.15 K	883.211	0.4833
293.15 K	877.539	0.454
298.15 K	871.533	0.4296
303.15 K	866.096	0.4112
308.15 K	860.319	0.3921
313.15 K	853.902	0.3726

CC(C)OC(C)C [diisopropyl ether] + CCC(C)Cl
[1]
Conditions	mass density [kg/m3]	viscosity [mPa·s]
283.15 K	733.833	0.3646
288.15 K	728.692	0.3486
293.15 K	723.509	0.334
298.15 K	718.289	0.3178
303.15 K	713.032	0.3001
308.15 K	707.727	0.2857
313.15 K	702.378	0.2723

CCCCCl [1-chlorobutane]
[2]
Conditions	mass density [kg/m3]	viscosity [mPa·s]
283.15 K	897.339	0.4993
288.15 K	891.855	0.4701
293.15 K	886.335	0.4433
298.15 K	880.705	0.4214
303.15 K	875.204	0.405
308.15 K	869.585	0.3885
313.15 K	863.882	0.3642

CC(C)OC(C)C [diisopropyl ether] + CCCCCl
[1]
Conditions	mass density [kg/m3]	viscosity [mPa·s]
283.15 K	733.833	0.3646
288.15 K	728.692	0.3486
293.15 K	723.509	0.334
298.15 K	718.289	0.3178
303.15 K	713.032	0.3001
308.15 K	707.727	0.2857
313.15 K	702.378	0.2723

CC(C)(C)Cl [2-chloro-2-methylpropane]
[2]
Conditions	mass density [kg/m3]	viscosity [mPa·s]
283.15 K	855.249	0.598
288.15 K	849.243	0.5538
293.15 K	843.191	0.5135
298.15 K	837.096	0.4768
303.15 K	830.958	0.4438
308.15 K	824.772	0.4196
313.15 K	818.536	0.3904

CCC(C)Cl (stereo unspecified) [2-chlorobutane]
[2]
Conditions	mass density [kg/m3]	viscosity [mPa·s]
283.15 K	884.34	0.4631
288.15 K	878.756	0.4365
293.15 K	873.13	0.4167
298.15 K	867.474	0.3993
303.15 K	861.779	0.38
308.15 K	856.044	0.3615
313.15 K	850.266	0.3443

CC(C)OC(C)C [diisopropyl ether] + CC(C)CCl
[1]
Conditions	mass density [kg/m3]	viscosity [mPa·s]
283.15 K	733.833	0.3646
288.15 K	728.692	0.3486
293.15 K	723.509	0.334
298.15 K	718.289	0.3178
303.15 K	713.032	0.3001
308.15 K	707.727	0.2857
313.15 K	702.378	0.2723

CC(C)OC(C)C [diisopropyl ether]
[2]
Conditions	mass density [kg/m3]	viscosity [mPa·s]
283.15 K	733.833	0.3646
288.15 K	728.692	0.3486
293.15 K	723.509	0.334
298.15 K	718.289	0.3178
303.15 K	713.032	0.3001
308.15 K	707.727	0.2857
313.15 K	702.378	0.2723
